± gives the expanded uncertainty stated by the source.
Experiments:
[1] = for surface tension liquid-gas: Maximal bubble pressure; for vapor or sublimation pressure: Closed cell (Static) method
[2] = refractive index (Na D-line) (dimensionless); details: 298.15 K; 101.33 kPa; Liquid; Standard Abbe refractometry
[3] = xn = mol fraction of the nth substance listed; details: 298.15 K, Maximal bubble pressure

Cc1ccc(C)o1 [2,5-dimethylfuran]
surface tension liquid-gas ([1]; 298.15 K): 25.1 ± 0.27 mN/m
mass density ([1]; 298.15 K, 101.33 kPa, Liquid, Vibrating tube method): 896.54 ± 0.09 kg/m3
vapor or sublimation pressure ([1]; 345.2 K, Liquid): 50 ± 0.25 kPa
vapor or sublimation pressure ([1]; 357.18 K, Liquid): 75 ± 0.41 kPa
vapor or sublimation pressure ([1]; 364.36 K, Liquid): 94 ± 0.56 kPa
vapor or sublimation pressure ([1]; 366.83 K, Liquid): 101.33 ± 0.6 kPa
refractive index [2]: 1.44012 ± 0.00032

Cc1ccc(C)o1 [2,5-dimethylfuran] + CCO
surface tension liquid-gas ([3]; x2 = 0): 25.1 ± 0.27 mN/m
surface tension liquid-gas ([3]; x2 = 0.049): 24.96 ± 0.27 mN/m
surface tension liquid-gas ([3]; x2 = 0.09): 24.89 ± 0.27 mN/m
surface tension liquid-gas ([3]; x2 = 0.176): 24.68 ± 0.27 mN/m
surface tension liquid-gas ([3]; x2 = 0.29): 24.38 ± 0.27 mN/m
surface tension liquid-gas ([3]; x2 = 0.386): 24.22 ± 0.27 mN/m
surface tension liquid-gas ([3]; x2 = 0.492): 23.93 ± 0.27 mN/m
surface tension liquid-gas ([3]; x2 = 0.594): 23.73 ± 0.26 mN/m
surface tension liquid-gas ([3]; x2 = 0.701): 23.4 ± 0.26 mN/m
surface tension liquid-gas ([3]; x2 = 0.804): 23.02 ± 0.26 mN/m
surface tension liquid-gas ([3]; x2 = 0.915): 22.73 ± 0.26 mN/m
surface tension liquid-gas ([3]; x2 = 0.963): 22.5 ± 0.26 mN/m

CCO [ethanol]
surface tension liquid-gas ([1]; 298.15 K): 22.1 ± 0.26 mN/m
vapor or sublimation pressure ([1]; 323.51 K, Liquid): 30.01 ± 0.08 kPa
vapor or sublimation pressure ([1]; 326.79 K, Liquid): 35.01 ± 0.09 kPa
vapor or sublimation pressure ([1]; 329.68 K, Liquid): 40.01 ± 0.1 kPa
vapor or sublimation pressure ([1]; 332.27 K, Liquid): 45.01 ± 0.1 kPa
vapor or sublimation pressure ([1]; 334.57 K, Liquid): 50 ± 0.2 kPa
vapor or sublimation pressure ([1]; 334.63 K, Liquid): 50.01 ± 0.11 kPa
vapor or sublimation pressure ([1]; 336.8 K, Liquid): 55.01 ± 0.11 kPa
vapor or sublimation pressure ([1]; 338.81 K, Liquid): 60.01 ± 0.12 kPa
vapor or sublimation pressure ([1]; 340.68 K, Liquid): 65.01 ± 0.13 kPa
vapor or sublimation pressure ([1]; 342.43 K, Liquid): 70.01 ± 0.14 kPa
vapor or sublimation pressure ([1]; 344.02 K, Liquid): 75 ± 0.34 kPa
vapor or sublimation pressure ([1]; 344.09 K, Liquid): 75.01 ± 0.14 kPa
vapor or sublimation pressure ([1]; 345.64 K, Liquid): 80.01 ± 0.15 kPa
vapor or sublimation pressure ([1]; 347.13 K, Liquid): 85.01 ± 0.16 kPa
vapor or sublimation pressure ([1]; 348.54 K, Liquid): 90.01 ± 0.16 kPa
vapor or sublimation pressure ([1]; 349.56 K, Liquid): 94 ± 0.42 kPa
vapor or sublimation pressure ([1]; 349.89 K, Liquid): 95.01 ± 0.17 kPa
vapor or sublimation pressure ([1]; 351.51 K, Liquid): 101.33 ± 0.2 kPa
vapor or sublimation pressure ([1]; 351.68 K, Liquid): 102.01 ± 0.18 kPa
refractive index [2]: 1.36068 ± 0.00031

CCO [ethanol] + Cc1ccc(C)o1
surface tension liquid-gas ([3]; x1 = 1): 22.1 ± 0.26 mN/m

Source: the NIST ThermoML archive (doi:10.1021/je400683g)
